Experimental data published in patent publication US20260365677A1, “NEW CONTRAST AGENTS FOR USE IN DIAGNOSTIC IMAGING” (Bayer Aktiengesellschaft, priority 2022, published 2026).

How the values were obtained:
[1] = test system: freshly isolated rat hepatocytes; test: Uptake into freshly isolated rat hepatocytes; format: cell-based; conditions: 100 μmol Gd/L, 10 min, 37 °C, relative to RC1 (Gd-EOB-DTPA)
Description: Triplicates were performed for each test item.

OATP1B3 = biological target: T1, OATP1B3 (Homo sapiens, UniProt Q9NPD5); test: Uptake into stable transfected OATP1B3 HEK 293 cells; format: cell-based; conditions: 100 μM, 40 min, relative to RC1 (Gd-EOB-DTPA)
T1 construct: expressed in transfected cells
T1 sequence (Q9NPD5 1-702): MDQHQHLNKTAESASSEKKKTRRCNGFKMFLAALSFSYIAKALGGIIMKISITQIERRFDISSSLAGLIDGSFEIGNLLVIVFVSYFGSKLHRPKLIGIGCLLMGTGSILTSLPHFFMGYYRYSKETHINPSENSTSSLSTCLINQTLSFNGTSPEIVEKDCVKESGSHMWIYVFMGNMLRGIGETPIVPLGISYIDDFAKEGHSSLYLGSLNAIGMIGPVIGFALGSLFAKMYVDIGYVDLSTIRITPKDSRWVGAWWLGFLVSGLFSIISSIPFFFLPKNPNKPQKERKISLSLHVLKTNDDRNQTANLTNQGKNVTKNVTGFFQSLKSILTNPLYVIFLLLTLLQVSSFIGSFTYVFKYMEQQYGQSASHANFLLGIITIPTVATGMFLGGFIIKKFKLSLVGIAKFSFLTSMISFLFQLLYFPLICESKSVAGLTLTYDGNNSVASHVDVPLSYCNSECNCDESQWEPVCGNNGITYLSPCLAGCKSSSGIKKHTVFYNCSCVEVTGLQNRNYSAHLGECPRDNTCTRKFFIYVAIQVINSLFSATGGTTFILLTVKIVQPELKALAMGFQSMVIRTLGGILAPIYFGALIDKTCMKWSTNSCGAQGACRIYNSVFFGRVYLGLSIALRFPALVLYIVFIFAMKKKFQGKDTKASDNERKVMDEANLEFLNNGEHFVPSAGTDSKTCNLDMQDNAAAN
Description: Human transfected OATP1B3 human embryonic kidney 293 cells (OATP1B3 HEK 293, SLCO1B3, Entrez Gene ID: 28234) were used (Leonhardt M et al. Drug Metab Dispos. 2010 July; 38(7):1024-8). The following culture medium was used: 500 mL DMEM (Dulbecco's Modified Eagle Medium—high Glucose, D6429), 50 mL FCS (fetal bovine serum, Fa. Sigma, F7524), 5.8 mL G418 (Geneticin, Fa. Gibco 10131-027) and 5 mL Pen-Strep. (Penicillin-Streptomycin, Fa. Gibco, Ref 15140-122). Cryopreserved cells were shortly thawed in water bath and diluted in 10 mL warm culture medium (37 °C). After medium change the cells were grown for 3d in a 25 cm^2 cell culture flask. After 3 to 5d the cells were transferred into 75 cm^2 flasks. For the splitting of cells these were incubated with 1.5 mL trypsin (Trypsin-EDTA (1×) 0.05%, Ref 25300-054 100 ml, Fa. Gibco) for 3-5 min in the incubator (37 °C, 5% CO2 and 95% oxygen). After centrifugation and washing with medium the cells were counted (50 μL cell suspension and 50 μL trypan blue (Trypan Blue Solution, 93595-50 ml, Fa. Fluka). Cells were cultured (1×10^5 cells/well) in poly-D-lysine coated 24-well plates (Fa. Corning, Ref: 354414) in 1.5 mL medium per well. After 48 hours in the incubator the medium was changed and 1.5 mL/well sodium butyrate containing medium were added (40 mL culture medium plus 400 μL Na-Butyrate, Fa. Sigma Aldrich B5887-5G, 250 mg in 2.27 mL MilliQ water). After 24 hours in the incubator the medium was vacuumed off and 1.5 mL transport buffer was added and incubated for 10 min. The transport buffer contains the following ingredients: 500 mL HBSS (Hank's balanced salt solution, Hyclone, SH30268.01), 5 mL HEPES buffer (4-(2-hydroxyethyl)-1-piperazine-ethanesulfonic acid, Gibco 15630-056) and 3.9 mL glucose (Sigma, G8270-100, 90 g/200 mL MilliQ water). All test items were prepared in transport buffer at a final concentration of 100 μM from stock solutions (180 to 500 mM concentration). The OATP1B3 HEK 293 cells were incubated with test solutions (test item in transport buffer 500 μL) for 40 min on a thermoshaker without shaking (PHMP, Fa. Grant Bio). Triplicates were performed for each test item. After incubation the cells were washed with 2 mL of cold PBS (+) buffer (Dulbeccos PBS+, Fa. Gibco). […] As a reference standard Gd-EOB-DTPA (gadoxetate) is used in the same well plate. The OATP1B3 HEK 293 uptake of the test compound is calculated relative to gadoxetate (resulting in the unit % of RC1).

[2] = Partition coefficient (log P butanol/buffer); format: physicochemical; conditions: 50 mM Tris-HCl, pH 7.4, 10 μM, room temperature
Description: The partition coefficient P (log P=log(Cbutanol/Cbuffer)) was determined in buffered aqueous solution (10 μM of compound in 0.5 mL 50 mM Tris-HCl saturated with Butanol, pH 7.4) and 1-butanol 1+1 and the mixture was shaken for 2 h at room temperature (n=3). The Gd-concentrations in each phase. CObutano, and Cbuffer were measured by ICP-MS (The Chemistry of Contrast Agents in Medical Magnetic Resonance Imaging” 2nd Ed. Merbach A S, Helm L, Toth E, eds. Hoboken, NJ: Wiley 2013).

[3] = Relaxivity measurements at 1.41 T in water and human plasma; format: physicochemical; conditions: 37 °C, normalized to Gd
Description: Relaxivity measurements at 1.41 T were performed using a MiniSpec mq60 spectrometer (Bruker Analytik, Karlsruhe, Germany) operating at a resonance frequency of 60 MHz and a temperature of 37 °C. The T1 relaxation times were determined using the standard inversion recovery (IR) method with a fixed relaxation delay of at least 5×T1. The variable inversion time (TI) was calculated automatically by the standard software of the MiniSpec mq60 (8 steps). The T2 measurements were performed by using a Carr-Purcell-Meiboom-Gill (CPMG) pulse sequence, applying a relaxation delay of at least 5×T1.
Each relaxivity measurement was performed using three different Gd concentrations (3 concentrations between 0.05 and 2 mM). The T1 and T2 relaxation times of the example compounds 1 to 10 were measured in different media for example in water and human plasma. Human plasma preparation: For each experiment fresh blood was taken from a volunteer using 10 mL citrate-tubes (Sarstedt S-Monovette 02.1067.001, 10 mL, Citrate). The 10 mL citrate-tubes were carefully inverted 10 times to mix blood and anticoagulant and centrifuged for 15 min at 1811 g at RT (Eppendorf, Centrifuge 5810R).
The relaxivities ri (where i=1, 2) were calculated based on the measured relaxation rates R, in water and plasma:
where Ri(0) represent the relaxation rate of the respective solvent and CGd the concentration of the compound normalized to the Gadolinium. The Gadolinium concentrations of the investigated solutions were verified by Inductively Coupled Plasma Mass Spectrometry (ICP-MS Agilent 7500a, Waldbronn, Germany).

Structure (SMILES) | Uptake rat hepatocytes [1] | Uptake into OATP1B3-HEK 293 cells (OATP1B3) | Log P [2] | r1 human plasma [3] [L/mmol/s] | r1 water [3] [L/mmol/s]
CCOCCOCCOc1ccc(C[C@H]2CN(CC(=O)[O-])CCN(CC(=O)[O-])CCN(CC(=O)O)CCN2CC(=O)[O-])cc1.[Gd+3] [Example 2, Gadolinium-2,2′,2″-[(2S)-10-(carboxymethyl)-2-{4-[2-(2-ethoxyethoxy)ethoxy]benzyl}-1,4,7,10-tetraazacyclododecane-1,4,7-triyl]triacetate] | 65 % of RC1 | 121 % of RC1 | −1.52 | 5.9 | 4.9
CCOCCOCCOc1ccc(C[C@H]2CN(CC(=O)[O-])CCN(CC(=O)[O-])CCN(CC(=O)O)CCN2CC(=O)[O-])nc1.[Gd+3] [Example 6, Gadolinium 2,2′,2″-[(2S)-10-(carboxymethyl)-2-({5-[2-(2-ethoxyethoxy)ethoxy]pyridin-2-yl}methyl)-1,4,7,10-tetraazacyclododecane-1,4,7-triyl]triacetate] | 47 % of RC1 | 32 % of RC1 | −1.96 | 5.9 | 5.3
CCOc1ccc(CC2CN(CC(=O)[O-])CCN(CC(=O)[O-])CCN(CC(=O)O)CCN2CC(=O)[O-])cc1.[Gd+3] (stereo not shown) [Example 7, Gadolinium-2,2′,2″-[10-(carboxymethyl)-2-(4-ethoxybenzyl)-1,4,7,10-tetraazacyclododecane-1,4,7-triyl]triacetate] | 73 % of RC1 | 36 % of RC1 | −1.32 | 6.2 | 4.5
CCOc1ccc(CC2CN(CC(=O)[O-])CCN(CC(=O)[O-])CCN(CC(=O)O)CCN2CC(=O)[O-])cc1.[Gd+3] (single isomer, unassigned; diastereomer 2) [Example 9, Gadolinium-2,2′,2″-[10-(carboxymethyl)-2-(4-ethoxybenzyl)-1,4,7,10-tetraazacyclododecane-1,4,7-triyl]triacetate (racemic diastereomer 2)] | 42 % of RC1 | 13 % of RC1 | −1.36 | 5.6 | 4.3
CCOCCOc1ccc(C[C@H]2CN(CC(=O)[O-])CCN(CC(=O)[O-])CCN(CC(=O)O)CCN2CC(=O)[O-])cc1.[Gd+3] [Example 4, Gadolinium-2,2′,2″-{(2S)-10-(carboxymethyl)-2-[4-(2-ethoxyethoxy)benzyl]-1,4,7,10-tetraazacyclododecane-1,4,7-triyl}triacetate] | 67 % of RC1 | 103 % of RC1 | −1.57 | 6.6 | 4.8
COCCOCCOCCOc1ccc(C[C@H]2CN(CC(=O)[O-])CCN(CC(=O)[O-])CCN(CC(=O)O)CCN2CC(=O)[O-])cc1.[Gd+3] [Example 1, Gadolinium-2,2′,2″-[(2S)-10-(carboxymethyl)-2-(4-{2-[2-(2-methoxyethoxy)-ethoxy]ethoxy}benzyl)-1,4,7,10-tetraazacyclododecane-1,4,7-triyl]triacetate] | 47 % of RC1 | 79 % of RC1 | −2.12 | 6.6 | 5.1
COCCOCCOCCOc1ccc(C[C@@H]2CN(CC(=O)[O-])CCN(CC(=O)[O-])CCN(CC(=O)O)CCN2CC(=O)[O-])cc1.[Gd+3] [Example 3, Gadolinium-2,2′,2″-[(2R)-10-(carboxymethyl)-2-(4-{2-[2-(2-methoxyethoxy)ethoxy]ethoxy}benzyl)-1,4,7,10-tetraazacyclododecane-1,4,7-triyl]triacetate] | 49 % of RC1 | 28 % of RC1 | −2.05 | 6.8 | 5.0
CCCCOc1ccc(C[C@H]2CN(CC(=O)[O-])CCN(CC(=O)[O-])CCN(CC(=O)O)CCN2CC(=O)[O-])cc1.[Gd+3] (single isomer, unassigned; stereoisomer 2) [Example 13] | 137 % of RC1 | 383 % of RC1 | – | 9.8 | 5.3
CCCCOc1ccc(C[C@H]2CN(CC(=O)[O-])CCN(CC(=O)[O-])CCN(CC(=O)O)CCN2CC(=O)[O-])cc1.[Gd+3] (single isomer, unassigned; stereoisomer 1) [Example 12] | 110 % of RC1 | 66 % of RC1 | −0.45 | 8.8 | 4.7
CCOc1ccc(C[C@H]2CN(CC(=O)[O-])CCN(CC(=O)[O-])CCN(CC(=O)O)CCN2CC(=O)[O-])cc1.[Gd+3] (single isomer, unassigned; stereoisomer 1) [Example 10] | 104 % of RC1 | 80 % of RC1 | −1.34 | 6.4 | 4.8
